US20140378460A1, “COMPOSITIONS AND METHODS FOR TREATING NEURODEGENERATIVE DISEASE” (COGNITION THERAPEUTICS, INC., priority 2011, published 2014)
Entries after “also recorded” stand apart in the source; their conditions may differ.

Columns and labels:
[1] = tested on: sigma 2 (agonist radioligand); test: Receptor panel, inhibition of binding; details: Compound II 10 uM
[2] = tested on: Na+ channel (site 2) (antagonist radioligand); test: Receptor panel, inhibition of binding
[3] = tested on: caspase-3 in SKOV-3 human ovarian cancer cells; test: Caspase-3 activity in tumor cells; format: cell-based
[4] = tested on: neurons and glia in culture; test: In vitro neuronal and glial toxicity; format: cell-based; details: acute or chronic dosing, up to 50 μM, three days
Excerpt: The sigma-2 receptor antagonists eliminated or reduced Abeta oligomer-induced changes in membrane trafficking.

neuronal cultures = test: Neuronal nuclear intensity / morphology; details: 24 hours
sigma-2 receptor [5] = target: T1, sigma-2 receptor (Rattus norvegicus, UniProt Q5U3Y7); test: Competitive Radioligand Binding Assay 2, sigma-2, rat liver membrane homogenates; set-up: conducted using rat liver membrane homogenates; from tissue; host or cells: rat liver membrane homogenates; details: read-out: Ki at sigma-2 receptors
T1 sequence (Q5U3Y7 1-176): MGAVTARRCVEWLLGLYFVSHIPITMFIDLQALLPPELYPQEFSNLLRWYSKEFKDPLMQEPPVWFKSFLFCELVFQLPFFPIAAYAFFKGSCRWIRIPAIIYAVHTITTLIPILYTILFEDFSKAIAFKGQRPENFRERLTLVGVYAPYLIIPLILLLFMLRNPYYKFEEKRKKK
Protocol: Test compounds were dissolved in N,N-Dimethylformamide (DMF), dimethyl sulfoxide (DMSO) or ethanol and then diluted in 50 mM Tris-HCl pH 7.4 buffer containing 150 mM NaCl and 100 mM EDTA. Membrane homogenates were made from guinea pig brain for sigma-1 binding assay and rat liver for sigma-2 binding assay. Membrane homogenates were diluted with 50 mM Tris-HCl buffer, pH 8.0 and incubated at 25° C. in a total volume of 150 uL in 96 well plates with the radioligand and test compounds with concentrations ranging from 0.1 nM to 10 uM. After incubation was completed, the reactions were terminated by the addition of 150 uL of ice-cold wash buffer (10 mM Tris HCl, 150 mM NaCl, pH 7.4) using a 96 channel transfer pipette (Fisher Scientific, Pittsburgh, Pa.) and the samples harvested and filtered rapidly through 96 well fiber glass filter plate (Millipore, Billerica, Mass.) that had been presoaked with 100 uL of 50 mM Tris-HCl buffer. Each filter was washed four times with 200 uL of ice-cold wash buffer (10 mM Tris-HCl, 150 mM NaCl, pH 7.4).
The binding affinity, Ki values was calculated using the method of Cheng and Prusoff.

sigma-2 receptor [6] = target: T1, sigma-2 receptor; test: Sigma-2 competitive radioligand binding, [3H]DTG with 300 nM (+)pentazocine, rat cerebral cortex membranes
Protocol: Reactions were terminated by rapid filtration through Whatman GF/C filters using a Brandel 12R cell harvester followed by two washes with ice-cold buffer. Radioactivity on the dried filter discs was measured using a liquid scintillation analyzer (Tri-Carb 2900TR; PerkinElmer Life and Analytical Sciences). The displacement curves were plotted and the Ki values of the test ligands for the receptor subtypes were determined using GraphPad Prism (GraphPad Software Inc., San Diego, Calif.). The percentage specific binding was determined by dividing the difference between total bound (disintegrations per minute) and nonspecific bound (disintegrations per minute) by the total bound (disintegrations per minute).

[7] = tested on: caspase-3 in neuronal cultures; test: Caspase-3 activity in neurons; format: cell-based
[8] = tested on: Abeta oligomer-induced memory deficits in wt C57BL/6 mice; test: Contextual fear conditioning, intrahippocampal Abeta oligomers; format: in vivo, mouse; details: before oligomers
Protocol: Several pharmaceutical companies use this same model in their discovery efforts. Contextual fear conditioning is an accepted model of associative memory formation which correlates to human cognitive function and specifically the creation of new memories (Delgado '06). Abeta oligomers are injected into the hippocampus of wild-type animals immediately before conditioning training and memory is assessed via freezing behavior after 24 hours. See, for example, FIGS. 4 and 8. Details are provided in Example 9. […] This model system was chosen because intrahippocampal administration of oligomers allows rapid comparative assessment of compound activity and off-target toxicity. The results are shown graphically in FIG. 4.
Compound II was tested in an animal model of a memory-dependent behavioral task known as fear conditioning. The study protocol was designed based on published protocols (See e.g. Puzzo D, Privitera L, Leznik E, Fà M, Staniszewski A, Palmeri A, Arancio O. Picomolar amyloid-beta positively modulates synaptic plasticity and memory in hippocampus. J. Neurosci. 2008 Dec. 31; 28(53):14537-45.). The formation of contextual memories is dependent upon the integrity of medial temporal lobe structures such as the hippocampus. […]

PGP = PGP (Homo sapiens, UniProt P08183); test: PGP activity; format: in vitro ADME
Chain of PGP (P08183 whole entry): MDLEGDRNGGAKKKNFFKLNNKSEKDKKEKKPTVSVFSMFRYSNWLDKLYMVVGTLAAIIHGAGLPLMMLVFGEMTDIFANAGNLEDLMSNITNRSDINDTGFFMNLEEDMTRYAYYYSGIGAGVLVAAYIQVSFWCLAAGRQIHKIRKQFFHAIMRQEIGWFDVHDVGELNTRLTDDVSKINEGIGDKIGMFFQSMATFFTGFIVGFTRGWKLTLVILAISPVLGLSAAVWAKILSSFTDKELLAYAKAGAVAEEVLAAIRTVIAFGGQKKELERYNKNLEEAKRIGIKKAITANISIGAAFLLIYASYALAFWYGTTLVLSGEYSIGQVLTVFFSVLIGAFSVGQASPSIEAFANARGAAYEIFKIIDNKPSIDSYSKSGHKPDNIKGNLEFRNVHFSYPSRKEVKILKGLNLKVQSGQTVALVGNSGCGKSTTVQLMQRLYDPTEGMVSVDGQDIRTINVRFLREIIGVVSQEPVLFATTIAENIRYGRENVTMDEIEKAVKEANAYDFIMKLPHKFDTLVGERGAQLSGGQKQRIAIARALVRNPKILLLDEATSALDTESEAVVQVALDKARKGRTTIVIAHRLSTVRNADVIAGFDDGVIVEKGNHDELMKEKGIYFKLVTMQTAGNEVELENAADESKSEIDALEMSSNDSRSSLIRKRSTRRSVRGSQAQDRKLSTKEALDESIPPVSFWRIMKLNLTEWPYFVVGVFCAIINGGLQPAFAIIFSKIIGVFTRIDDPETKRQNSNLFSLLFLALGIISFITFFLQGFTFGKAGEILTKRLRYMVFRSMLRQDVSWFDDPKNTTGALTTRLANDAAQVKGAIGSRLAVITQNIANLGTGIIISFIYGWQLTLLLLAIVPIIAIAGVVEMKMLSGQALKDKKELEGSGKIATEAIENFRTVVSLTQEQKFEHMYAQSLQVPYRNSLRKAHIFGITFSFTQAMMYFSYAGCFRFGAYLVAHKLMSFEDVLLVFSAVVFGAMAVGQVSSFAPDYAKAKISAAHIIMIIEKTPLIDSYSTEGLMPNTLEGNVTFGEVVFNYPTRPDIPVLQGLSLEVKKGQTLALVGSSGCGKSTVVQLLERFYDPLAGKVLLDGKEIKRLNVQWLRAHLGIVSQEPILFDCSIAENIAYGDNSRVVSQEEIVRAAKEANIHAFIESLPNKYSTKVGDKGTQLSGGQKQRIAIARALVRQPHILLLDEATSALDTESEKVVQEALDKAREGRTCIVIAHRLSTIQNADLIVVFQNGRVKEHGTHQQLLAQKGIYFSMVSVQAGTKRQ

hERG = hERG (Homo sapiens, UniProt Q12809); test: hERG inhibition; details: 100 nM
Chain of hERG (Q12809 whole entry): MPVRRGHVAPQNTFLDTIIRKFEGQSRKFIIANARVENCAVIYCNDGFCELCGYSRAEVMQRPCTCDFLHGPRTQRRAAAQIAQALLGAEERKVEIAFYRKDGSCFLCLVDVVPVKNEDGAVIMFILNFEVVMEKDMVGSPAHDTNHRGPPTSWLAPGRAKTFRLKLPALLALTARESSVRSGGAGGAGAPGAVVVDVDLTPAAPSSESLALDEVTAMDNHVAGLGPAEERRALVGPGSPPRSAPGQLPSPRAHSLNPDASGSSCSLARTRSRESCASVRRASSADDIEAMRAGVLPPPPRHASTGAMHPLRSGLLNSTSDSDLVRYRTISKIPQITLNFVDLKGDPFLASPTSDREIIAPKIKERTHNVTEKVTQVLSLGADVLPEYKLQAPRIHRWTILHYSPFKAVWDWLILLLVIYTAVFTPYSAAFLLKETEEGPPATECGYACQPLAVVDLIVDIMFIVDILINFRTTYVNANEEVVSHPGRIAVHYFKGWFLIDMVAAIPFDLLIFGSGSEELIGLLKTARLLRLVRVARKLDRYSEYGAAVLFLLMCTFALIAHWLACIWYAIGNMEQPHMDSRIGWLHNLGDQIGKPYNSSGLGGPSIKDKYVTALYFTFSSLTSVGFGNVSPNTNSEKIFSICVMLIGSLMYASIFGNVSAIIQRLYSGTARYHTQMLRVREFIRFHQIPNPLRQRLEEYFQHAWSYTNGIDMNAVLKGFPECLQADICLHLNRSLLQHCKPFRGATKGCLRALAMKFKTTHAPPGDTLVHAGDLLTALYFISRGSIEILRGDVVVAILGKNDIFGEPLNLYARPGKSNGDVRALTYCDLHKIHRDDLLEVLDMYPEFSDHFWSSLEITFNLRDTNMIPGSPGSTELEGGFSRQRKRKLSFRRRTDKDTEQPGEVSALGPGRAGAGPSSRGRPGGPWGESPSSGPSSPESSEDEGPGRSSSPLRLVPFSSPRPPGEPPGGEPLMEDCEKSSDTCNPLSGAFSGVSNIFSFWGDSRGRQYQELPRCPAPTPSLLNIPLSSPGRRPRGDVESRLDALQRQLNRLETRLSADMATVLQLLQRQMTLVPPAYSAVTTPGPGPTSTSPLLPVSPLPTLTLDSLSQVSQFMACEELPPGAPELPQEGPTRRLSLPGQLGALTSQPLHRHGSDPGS

in vivo = details: male, C57BL/6, mouse, sc, 10 mg/kg
Excerpt: A plasma calibration curve was generated.
Subcutaneous compound administration was accomplished by […]. Per oral administration was accomplished by gastric gavage. Intravenous administration was accomplished via jugular catheter.
A brain calibration curve was generated.

[9] = tested on: Abeta oligomer-induced synapse loss in primary hippocampal neurons; test: Synapse loss assay; format: cell-based, rat
Protocol: In this assay, Abeta oligomers were brought in contact with mature primary neurons in culture and their binding was determined by immunohistochemistry (anti-Abeta antibody) and quantified by image processing. The amount of Abeta in neuronal dendrites is assessed by counting the number of labeled puncta on the neuritis. […] This labeling is associated with synapses, co-localizing with the post-synaptic scaffold protein PSD-95 (Lacor et al., '04). […] The number of synapses can also be quantified in this assay by immunofluorochemistry. Similar procedures for binding assays can be found in the literature. […] Review.
Primary hippocampal neuronal culture was established as in the membrane trafficking assay above. […] Pretreatment with compounds to be tested lasted for 1 hr and addition of Abeta oligomers or no oligomer (vehicle alone) in a final concentration of 70 ul was followed by incubation for an additional 23 hrs.
The plates were then washed 3× with PBS for 5 min each. The plates were blocked at RT for 1 hr in 5% goat serum and 0.5% Triton X-100 in PBS. […] Primary antibodies were incubated overnight at 4° C. The plates were then washed 3× with PBS for 5 min each. […] Secondary antibodies were incubated at RT for 1 hr. The plates were washed once with PBS. DAPI (4′,6-diamidino-2-phenylindole, Invitrogen) was then applied at 0.03 ug/ul and incubated at RT for 5 min, then washed with PBS.

## COc1cc(CCC(C)NCc2ccc(C(F)(F)F)cc2)ccc1O (stereo not drawn) [Compound II]
[1]
  % Inhibition of Control: 89%
[2]; Compound II 10 uM
  % Inhibition of Control: 54%
[2]; Table 11E
  Other Targets: Na + ch2: Na + ch2 (2 uM)
[3]
  Block of SV-119-induced caspase-3 activation in tumor cells: do not block caspase-3 activation
  Caspase-3 activity induced in tumor cells: did not induce caspase-3 activity
[4]
  Neuronal or glial toxicity: did not induce neuronal or glial toxicity
Neuronal cultures
  Nuclear morphology / nuclear intensity in neurons: did not decrease nuclear intensity
sigma-2 receptor [5]
  Ki: 59.7 nM
sigma-2 receptor [6]; Ki at sigma-2 receptors, displacement of [3H]DTG/300 nM (+)-pentazocine, rat neocortex homogenate
  Ki: 9 nM
sigma-2 receptor [6]; S2 binding Ki (nM), Table 11B
  Ki: 9 nM
sigma-2 receptor [6]; Sigma 2 Binding Ki (nM), Table 2, own compounds
  Ki: 9 nM
sigma-2 receptor [6]; Sigma Affinity (S2) nM, Table 11E, own compounds
  Ki: 9 nM
[7]
  Block of SV-119-induced caspase-3 activation in neurons: blocked caspase-3 activation
  Caspase-3 activity induced in neurons: did not induce caspase-3 activity
[8]
  Effect on Abeta oligomer-induced memory deficits: eliminated memory deficits; also recorded: completely blocked oligomer-mediated memory deficits at the 2 pmol dose
PGP
  IC50: > 30 µM
hERG
  hERG inhibition: 24%
In vivo
  AUC: 385 ng·h/mL
  Cmax: 279 ng/mL
  Tmax: 30 min
[9]
  Effect on Abeta oligomer-induced synapse loss: completely eliminated this synaptic regression
[9]; 5 μM
  Abeta oligomer-induced synapse loss eliminated: 100%
[9]; Table 11B
  Block synapse loss: 100%
[9]; b801
  Abeta oligomer-induced synapse loss eliminated / recovery: 100%
